Strand notation (5' to 3'): a small letter for the sugar, then the base; units joined by * are phosphorothioate-linked, units joined directly phosphodiester-linked; [ ] holds rarer units or linkages, { } end groups; capitals alone tell only the bases. k = constrained ethyl (cEt); [5mC] = 5-methylcytosine; d = 2'-deoxy (DNA)
How the values were obtained:
Yap1 mRNA [1] = assay: Antisense inhibition of human Yap1 in A-431 cells by cEt gapmers, single dose (Example 4, RTS4814); assay type: cell-based
Procedure, shortened: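 A-431 cells took up 3-10-3 cEt gapmers (16-mer, full phosphorothioate, 5-methylcytosines) by free uptake at 2,000 nM for about 48 h. Yap1 mRNA was quantified by qRT-PCR, normalized to total RNA (RIBOGREEN), and reported as % of untreated control.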

Yap1 mRNA [2] = assay: Dose-dependent inhibition of human Yap1 in A-431 cells (Example 8, 10,000 cells per well, RTS4814); assay type: cell-based; settings: A-431 cells; for IC50: Yap1 mRNA
Procedure, shortened: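 A-431 cells (10,000/well) dosed with modified oligonucleotides by free uptake; Yap1 mRNA measured ~48 h later with primer-probe set RTS4814, normalized to total RNA (RIBOGREEN). Values are % of untreated control; IC50 from linear regression on log/linear plot.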

[3] = Yap1 mRNA remaining as percent of untreated control, 3-10-3 cEt gapmers, A-431 cells, Table 37
[4] = Yap1 mRNA remaining as percent of untreated control, 3-10-3 cEt gapmers, A-431 cells, Table 36

Row | Substance | YAP1 (% UTC) (Yap1 mRNA [1]; [3]) | % UTC (Yap1 mRNA) (Yap1 mRNA [2]; 31.3 nM) [% UTC] | % UTC (Yap1 mRNA) (Yap1 mRNA [2]; 125.0 nM) [% UTC] | % UTC (Yap1 mRNA) (Yap1 mRNA [2]; 500.0 nM) [% UTC] | % UTC (Yap1 mRNA) (Yap1 mRNA [2]; 2000.00 nM) [% UTC] | IC50 (Yap1 mRNA [2]) [nM] | YAP1 (% UTC) (Yap1 mRNA [1]; [4]) | YAP1 (% UTC) (Yap1 mRNA [1]; Table 14, A-431 cells, 5,000 cells per well, free uptake, 2,000 nM, approximately 48 hours, RTS4814, normalized to RIBOGREEN, Yap1 mRNA relative to untreated control, * = targets amplicon region of primer probe set)
1 | 1076023 (kA*kT*kA*dA*dT*dT*dA*dG*dA*dT*dG*d[5mC]*dT*kG*kA*k[5mC]; antisense) [compound 1076023] | 4 | 60 | 18 | 5 | 3 | < 20 |  | 
2 | 1074679 (antisense kT*k[5mC]*kT*dT*dA*dA*dT*d[5mC]*dT*dG*dT*dG*dG*k[5mC]*kT*kA) [compound 1074679] | 5 | 52 | 16 | 6 | 5 | < 20 |  | 
3 | 1074230 (antisense kA*kA*kG*dA*dA*dG*dA*d[5mC]*dT*dG*dT*d[5mC]*dG*kA*kA*kG) [compound 1074230] |  | 62 | 30 | 12 | 8 | 50 | 4 | 
4 | 1076022 (kT*kA*kA*dT*dT*dA*dG*dA*dT*dG*d[5mC]*dT*dG*kA*k[5mC]*kA; antisense) [compound 1076022] |  | 63 | 28 | 8 | 5 | 40 | 2 | 
5 | 1074454 (kT*kG*kT*dG*dA*d[5mC]*dT*dA*dA*dT*dG*dA*dT*kA*kG*k[5mC]; antisense) [compound 1074454] |  | 39 | 9 | 3 | 3 | < 20 | 1 | 
6 | 1076406 (antisense kA*kT*kT*dA*dT*dT*dT*dA*dA*dG*dA*d[5mC]*d[5mC]*kT*kG*kG) [compound 1076406] |  | 51 | 20 | 9 | 7 | < 20 | 4 | 
7 | 1074775 (kG*kG*kT*dT*dT*dA*dT*dT*dG*dT*dA*dA*dA*kA*kG*k[5mC]; antisense) [compound 1074775] | 3 | 26 | 5 | 2 | 2 | < 20 |  | 
8 | 1076471 (k[5mC]*kA*kT*dT*dA*dG*dA*d[5mC]*dT*dA*dG*dG*d[5mC]*kT*kT*kT; antisense) [compound 1076471] | 5 | 64 | 29 | 9 | 5 | 50 |  | 
9 | 1074486 (kA*kT*kT*d[5mC]*dA*d[5mC]*dT*dA*dA*dT*dA*dT*dG*kG*kT*k[5mC]; antisense) [compound 1074486] |  | 55 | 26 | 10 | 6 | < 20 | 4 | 
10 | 1075894 (antisense k[5mC]*kT*k[5mC]*dG*dA*dA*dA*dG*d[5mC]*dT*dG*dG*dG*k[5mC]*k[5mC]*k[5mC]) [compound 1075894] |  |  |  |  |  |  | 100 | 
11 | 1074806 (kT*kT*kG*dT*dA*dG*d[5mC]*dA*dA*dA*dG*dT*d[5mC]*kA*k[5mC]*kT; antisense) [compound 1074806] |  |  |  |  |  |  | 8 | 
12 | 1076470 (kG*kA*kT*dA*dA*dA*dG*dA*dG*dG*dT*dT*dA*kA*k[5mC]*kA; antisense) [compound 1076470] |  |  |  |  |  |  | 34 | 
13 | 1074368 (antisense kG*kA*kT*dA*dG*dT*dA*dT*d[5mC]*dA*d[5mC]*d[5mC]*dT*kG*kT*kA) [Compound 1074368] |  |  |  |  |  |  |  | 8
14 | 1075382 (antisense kA*kT*kT*dA*dT*dT*dA*d[5mC]*d[5mC]*d[5mC]*dT*dA*d[5mC]*kT*k[5mC]*kA) [compound 1075382] |  |  |  |  |  |  | 33 | 
15 | 1074294 (antisense kT*kT*kG*dG*dA*dG*dT*dT*dG*d[5mC]*dT*dG*d[5mC]*k[5mC]*kA*k[5mC]) [compound 1074294] |  |  |  |  |  |  | 80 | 
16 | 1076566 (kA*kA*kT*dT*dA*d[5mC]*dA*dG*dT*dG*dT*d[5mC]*dT*k[5mC]*kA*k[5mC]; antisense) [compound 1076566] |  |  |  |  |  |  | 63 | 
